Consider 41 compounds from patent US8163737B2 (Vertex Pharmaceuticals Incorporated, priority 2006, dated 2012).

The structures appear in SMILES notation. A value given as a limit tells only on which side of the number the result lay.

For the assay, the target named is endogenous CGRP receptor (Homo sapiens, UniProt O60894+Q16602). Description: CGRP functional antagonism using SK-N-MC-BLA (4C10), β-lactamase transcriptional reporter assay. Particulars: SK-N-MC (4C10) cells, inhibition of β-lactamase expression in the presence of 200 pM CGRP. The assay is classed as cell-based. In general terms: Reporter assays use an easily measured gene product as a stand-in for the process of interest.
Sequence of endogenous CGRP receptor (Q16602 23-461): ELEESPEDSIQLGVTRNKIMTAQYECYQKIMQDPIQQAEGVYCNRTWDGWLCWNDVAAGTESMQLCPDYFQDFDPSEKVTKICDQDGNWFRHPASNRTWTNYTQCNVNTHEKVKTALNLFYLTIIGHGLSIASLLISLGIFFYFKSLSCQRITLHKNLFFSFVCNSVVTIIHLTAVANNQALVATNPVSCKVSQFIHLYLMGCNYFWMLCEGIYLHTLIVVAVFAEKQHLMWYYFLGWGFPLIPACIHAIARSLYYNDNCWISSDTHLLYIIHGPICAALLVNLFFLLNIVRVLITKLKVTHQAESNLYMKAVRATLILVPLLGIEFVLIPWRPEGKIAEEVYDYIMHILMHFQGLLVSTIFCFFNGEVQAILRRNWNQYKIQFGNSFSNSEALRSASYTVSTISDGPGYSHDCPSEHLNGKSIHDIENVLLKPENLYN
Sequence of endogenous CGRP receptor (O60894 27-148): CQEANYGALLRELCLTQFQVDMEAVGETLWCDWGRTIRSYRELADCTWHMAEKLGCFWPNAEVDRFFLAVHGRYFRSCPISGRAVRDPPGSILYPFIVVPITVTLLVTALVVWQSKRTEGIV
In general, IC50 refers to the concentration that gives 50% inhibition. Take `CC(C)(C)CCN1C(=O)C(CC(=O)N2CCC(n3c(=O)[nH]c4ccccc43)CC2)SC1c1ccccc1N1CCCCC1` (centres unmarked) [Compound 298]: the IC50 was less than 1 µM.

On to `CC(C)(C)CCN1C(=O)C(CC(=O)N2CCC(n3c(=O)[nH]c4ccccc43)CC2)SC1c1ccccc1N1CCOCC1` (centres unmarked) [Compound 300], for which the IC50 is less than 1 µM.

With `CC(C)(C)CCN1C(=O)C(CC(=O)N2CCC(N3Cc4ccccc4NC3=O)CC2)SC1c1c[nH]cn1` (centres unmarked) [Compound 305], the 50% inhibitory concentration (IC50) lay within 1 to 5 µM.

Consider `CC(C)(C)CCN1C(=O)C(CC(=O)N2CCC(N3CCc4ccccc4NC3=O)CC2)SC12CCCc1ccccc12` (centres unmarked) [Compound 308], for which the IC50 is less than 1 µM.

With `CC(C)(C)CCN1C(=O)C(CC(=O)N2CCC(N3Cc4ccccc4NC3=O)CC2)SC12c1ccccc1-c1ccccc12` (centres unmarked) [Compound 309], the IC50 was in the range of 1 to 5 µM.

Regarding `CC(C)(C)CCN1C(=O)C(CC(=O)N2CCC(N3CCc4ccccc4NC3=O)CC2)SC12c1ccccc1-c1ccccc12` (centres unmarked) [Compound 310], the IC50 was less than 1 µM.

As to `CC(C)(C)CCN1C(=O)C(CC(=O)N2CCC(n3c(=O)[nH]c4ccccc43)CC2)SC12c1ccccc1-c1ccccc12` (centres unmarked) [Compound 311], the IC50 was 1 to 5 µM.

On to `CC(C)(C)CCN1C(=O)C(CC(=O)N2CCC(N3Cc4ccccc4NC3=O)CC2)SC1(C)c1ccccc1` (centres unmarked) [Compound 312], for which the IC50 was less than 1 µM.

Regarding `CC(C)(C)CCN1C(=O)C(CC(=O)N2CCC(N3CCc4ccccc4NC3=O)CC2)SC1c1c[nH]cn1` (centres unmarked) [Compound 313], the IC50 is less than 1 µM.

For `CC(C)(C)CCN1C(=O)C(CC(=O)N2CCC(N3CCc4ccccc4NC3=O)CC2)SC1c1ncc[nH]1` (centres unmarked) [Compound 314], the IC50 was greater than 5 µM.

Turning to `CC(C)(C)CCN1C(=O)C(CC(=O)N2CCC(N3CCc4ccccc4NC3=O)CC2)SC12CCc1ccccc12` (centres unmarked) [Compound 318], the IC50 was less than 1 µM.

For the compound `CN1CCN(c2ccccc2C2SC(CC(=O)N3CCC(N4Cc5cccnc5NC4=O)CC3)C(=O)N2CCC(C)(C)C)CC1` (centres unmarked) [Compound 320], the IC50 is less than 1 µM.

Consider `CN1CCN(c2c(F)cccc2C2SC(CC(=O)N3CCC(N4Cc5ccccc5NC4=O)CC3)C(=O)N2CCC(C)(C)C)CC1` (centres unmarked) [Compound 323], for which the IC50 is less than 1 µM.

Consider `CN1CCN(c2c(F)cccc2C2SC(CC(=O)N3CCC(n4cc(-c5ccccc5)[nH]c4=O)CC3)C(=O)N2CCC(C)(C)C)CC1` (centres unmarked) [Compound 325], for which the IC50 is less than 1 µM.

Turning to `CN1CCN(c2ccccc2C2SC(CC(=O)N3CCC4(CC3)CC(=O)c3ccccc3O4)C(=O)N2CCC(C)(C)C)CC1` (centres unmarked) [Compound 332], the IC50 was greater than 5 µM.

Regarding `CN1CCN(c2ccccc2[C@@H]2S[C@](C)(CC(=O)N3CCC(N4Cc5ccccc5NC4=O)CC3)C(=O)N2CCC(C)(C)C)CC1` [Compound 333], the IC50 lay in the range of 1 to 5 µM.

Take `CN1CCN(c2ccccc2[C@H]2S[C@](C)(CC(=O)N3CCC(N4Cc5ccccc5NC4=O)CC3)C(=O)N2CCC(C)(C)C)CC1` [Compound 334]: the IC50 was less than 1 µM.

For `CN1CCN(c2c(F)cccc2C2SC(CC(=O)N3CCC(n4c(=O)[nH]c5ccccc54)CC3)C(=O)N2CCC(C)(C)C)CC1` (centres unmarked) [Compound 338], the IC50 is less than 1 µM.

As to `CC(C)N1CCN(c2c(F)cccc2C2SC(CC(=O)N3CCC(n4cc(-c5ccccc5)[nH]c4=O)CC3)C(=O)N2CCC(C)(C)C)CC1` (centres unmarked) [Compound 342], the IC50 lay within 1 to 5 µM.

`CCN1CCN(c2c(F)cccc2C2SC(CC(=O)N3CCC(N4Cc5ccccc5NC4=O)CC3)C(=O)N2CCC(C)(C)C)CC1` (centres unmarked) [Compound 344]: the IC50 was less than 1 µM.

On to `CCN1CCN(c2c(F)cccc2C2SC(CC(=O)N3CCC(n4cc(-c5ccccc5)[nH]c4=O)CC3)C(=O)N2CCC(C)(C)C)CC1` (centres unmarked) [Compound 346], for which the IC50 is less than 1 µM.

Take `CN1CCN(c2ccc(F)cc2C2SC(CC(=O)N3CCC(N4CCc5ccccc5NC4=O)CC3)C(=O)N2CCC(C)(C)C)CC1` (centres unmarked) [Compound 352]: the half-inhibitory concentration (IC50) was less than 1 µM.

For `CN1CCN(c2c(Cl)cccc2C2SC(CC(=O)N3CCC(N4CCc5ccccc5NC4=O)CC3)C(=O)N2CCC(C)(C)C)CC1` (centres unmarked) [Compound 356], the IC50 is less than 1 µM.

Take `CN1CCN(c2c(Cl)cccc2C2SC(CC(=O)N3CCC(n4cc(-c5ccccc5)[nH]c4=O)CC3)C(=O)N2CCC(C)(C)C)CC1` (centres unmarked) [Compound 358]: the half-inhibitory concentration (IC50) was greater than 5 µM.

With `CN1CCN(c2cc(F)ccc2C2SC(CC(=O)N3CCC(N4Cc5ccccc5NC4=O)CC3)C(=O)N2CCC(C)(C)C)CC1` (centres unmarked) [Compound 360], the IC50 is less than 1 µM.

Take `CN1CCN(c2cc(F)ccc2C2SC(CC(=O)N3CCC(N4CCc5ccccc5NC4=O)CC3)C(=O)N2CCC(C)(C)C)CC1` (centres unmarked) [Compound 361]: the IC50 was in the range of 1 to 5 µM.

With `CN1CCN(c2cc(F)ccc2C2SC(CC(=O)N3CCC(n4c(=O)[nH]c5ncccc54)CC3)C(=O)N2CCC(C)(C)C)CC1` (centres unmarked) [Compound 362], the IC50 fell in the range of 1 to 5 µM.

In the case of `CCCCN1CCN(c2ccccc2C2SC(CC(=O)N3CCC(N4Cc5ccccc5NC4=O)CC3)C(=O)N2CCC(C)(C)C)CC1` (centres unmarked) [Compound 364], the IC50 is greater than 5 µM.

With `CCCCN1CCN(c2ccccc2C2SC(CC(=O)N3CCC(n4c(=O)[nH]c5ncccc54)CC3)C(=O)N2CCC(C)(C)C)CC1` (centres unmarked) [Compound 366], the IC50 was less than 1 µM.

In the case of `CN1CCCN(c2ccccc2C2SC(CC(=O)N3CCC(N4Cc5ccccc5NC4=O)CC3)C(=O)N2CCC(C)(C)C)CC1` (centres unmarked) [Compound 369], the IC50 is 1 to 5 µM.

Take `CN1CCCN(c2ccccc2C2SC(CC(=O)N3CCC(N4CCc5ccccc5NC4=O)CC3)C(=O)N2CCC(C)(C)C)CC1` (centres unmarked) [Compound 370]: the IC50 is less than 1 µM.

For `CC(C)(C)CCN1C(=O)C(CC(=O)N2CCC(N3CCc4ccccc4NC3=O)CC2)SC1c1ccccc1N1CCN(CCO)CC1` (centres unmarked) [Compound 372], the IC50 was greater than 5 µM.

For the compound `CN1CCN(c2ccccc2[C@H]2S[C@](C)(CC(=O)N3CCC(N4CCc5ccccc5NC4=O)CC3)C(=O)N2CCC(C)(C)C)CC1` [Compound 377], the IC50 is 1 to 5 µM.

`CN1CCN(c2ccccc2[C@@H]2S[C@](C)(CC(=O)N3CCC(n4c(=O)[nH]c5ncccc54)CC3)C(=O)N2CCC(C)(C)C)CC1` [Compound 378]: the IC50 was less than 1 µM.

`CN1CCC(N2CCN(c3ccccc3C3SC(CC(=O)N4CCC(N5CCc6ccccc6NC5=O)CC4)C(=O)N3CCC(C)(C)C)CC2)CC1` (centres unmarked) [Compound 379]: the IC50 was less than 1 µM.

In the case of `CN1CCC(N2CCN(c3ccccc3C3SC(CC(=O)N4CCC(n5c(=O)[nH]c6ncccc65)CC4)C(=O)N3CCC(C)(C)C)CC2)CC1` (centres unmarked) [Compound 381], the IC50 was greater than 5 µM.

As to `CN(C)CCCN(C)c1ccccc1C1SC(CC(=O)N2CCC(n3c(=O)[nH]c4ncccc43)CC2)C(=O)N1CCC(C)(C)C` (centres unmarked) [Compound 382], the IC50 was less than 1 µM.

Turning to `CN(C)CCN(C)c1ccccc1C1SC(CC(=O)N2CCC(N3CCc4ccccc4NC3=O)CC2)C(=O)N1CCC(C)(C)C` (centres unmarked) [Compound 383], the IC50 lay in the range of 1 to 5 µM.

With `CC(C)(C)CCN1C(=O)C(CC(=O)N2CCC(N3CCc4ccccc4NC3=O)CC2)SC1c1ccccc1N1CCC(N2CCCCC2)CC1` (centres unmarked) [Compound 384], the IC50 was greater than 5 µM.

Consider `CN(C)CCCN(C)c1ccccc1C1SC(CC(=O)N2CCC(N3CCc4ccccc4NC3=O)CC2)C(=O)N1CCC(C)(C)C` (centres unmarked) [Compound 385], for which the IC50 fell in the range of 1 to 5 µM.

For the compound `CC(C)(C)CCN1C(=O)C(CC(=O)N2CCC(n3c(=O)[nH]c4ncccc43)CC2)SC1c1ccccc1N1CCC(N2CCCCC2)CC1` (centres unmarked) [Compound 387], the IC50 was less than 1 µM.
